# Literature values as cited in patent US20050239864A1, “Novel tumor-selective chemotherapeutic agents” (priority 2004, published 2005).
# Experiments:
# [1] = target: HSA (Homo sapiens, UniProt P02768); conditions: exogenously added HSA; cited from earlier work
# [2] = target: T1, endogenous albumin (Homo sapiens, UniProt P02768); conditions: human blood plasma; cited from earlier work
# T1 construct: To determine the coupling rate and selectivity of Dox-MH for endogenous albumin, Dox-MH was incubated with human blood plasma; from tissue; host or cells: human blood plasma
# T1 sequence (P02768 25-609): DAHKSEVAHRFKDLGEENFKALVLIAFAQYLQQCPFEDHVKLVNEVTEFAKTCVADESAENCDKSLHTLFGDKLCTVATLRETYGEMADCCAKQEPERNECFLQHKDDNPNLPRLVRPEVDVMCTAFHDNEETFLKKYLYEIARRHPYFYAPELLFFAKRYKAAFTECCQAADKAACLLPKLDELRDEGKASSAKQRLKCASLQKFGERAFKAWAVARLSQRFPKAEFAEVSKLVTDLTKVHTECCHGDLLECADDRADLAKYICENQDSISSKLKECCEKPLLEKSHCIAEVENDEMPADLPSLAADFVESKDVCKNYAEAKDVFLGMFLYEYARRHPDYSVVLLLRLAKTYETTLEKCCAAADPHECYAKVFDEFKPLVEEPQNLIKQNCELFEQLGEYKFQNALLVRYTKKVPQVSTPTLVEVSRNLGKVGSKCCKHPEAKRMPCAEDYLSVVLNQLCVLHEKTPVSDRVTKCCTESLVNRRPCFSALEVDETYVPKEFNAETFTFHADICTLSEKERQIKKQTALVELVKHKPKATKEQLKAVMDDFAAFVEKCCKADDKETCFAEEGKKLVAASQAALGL
# [3] = test system: MDA-MB 435 human breast cancer; conditions: cited from earlier work
# [4] = test system: mouse renal RENCA, human breast cancers MDA-MB 435 and MCF-7; conditions: three animal tumor models; cited from earlier work
# Sequence of HSA (P02768 25-609): as above
structure (smiles),measurement,setting,value
COc1cccc2c1C(=O)c1c(O)c3c(c(O)c1C2=O)C[C@@](O)(/C(CO)=N/NC(=O)CCCCCN1C(=O)C=CC1=O)C[C@@H]3O[C@H]1C[C@H](N)[C@H](O)[C@H](C)O1 [Dox-MH],time by which all had reacted with HSA,[1],≤ 90 min
same,time by which majority had reacted with HSA,[1],≤ 5 min
same,time after which reaction with HSA was almost complete,[2],2 min
same,time by which all had reacted,[2],≤ 90 min
same,antitumor response,[3]; Dox-MH at optimal dose (3×23 mg/kg),complete remissions were achieved
same,change in body weight,[3]; after 24 days of drug administration,did not produce an overall change in body weight
same,antitumor efficacy and toxicity versus free doxorubicin,[4],distinctly superior to free doxorubicin
